Source: US20220288091A1, “Method for Improving Insulin Sensitivity” (priority 2019, published 2022)

System: hypothalamic-pituitary-adrenal axis
Test: 24-hour urinary free cortisol (UFC)
Type: in vivo, human
Conditions: 50 mg every 6 hours for 9 days; for Urinary Free Cortisol (24-hour UFC): mean±SD, n=16, normal 3.5-45
Text: Urine cortisol and other surrogate biochemical markers of HPA activation: This includes all tests currently available or subsequently developed that may be used to evaluate the effects of GRA dose and schedule on the HPA axis. Normal 24-hour urine free cortisol (UFC) levels range from […] when measured in most tandem mass spectrometry assays. Values are higher when measured by immunoassays because of cross-reactivity with the antibodies used in those assays with other steroids that are structurally similar to cortisol. Measurement of UFC by tandem mass spectrometry is the preferred method to assess the effect of GRAs on the HPA axis for three reasons: 1. ease of collection, 2. specificity of the assay (it measures only cortisol) and 3. the well-established range of values seen in physiologic stress, or Pseudo-Cushing's syndrome, which is 1-3 times the upper limit of the normal reference range. However, other biochemical tests may be used as surrogate biochemical markers of the HPA axis, including, but not limited to measurement of serum or salivary cortisol at multiple time-points throughout a 24 hour period, including both the day and night, which is expressed as either the mean value or the area under the curve. Normal ranges for all cortisol assays and 24-hour assessments will vary depending on the assay technique, and reagents, and must be used based on locally-determined values, or values provided by the manufacturer of an assay kit. The results obtained from any of these assays are then used to determine whether the dosage of the one or more GR antagonists need to be adjusted upwards or downwards so as to maintain 24-hour serum or urinary free cortisol levels at no more than about two or three times the upper level of the normal range, respectively.
Initially, 19 subjects underwent randomization. […]
To reduce potential variability associated with estrogen in premenopausal women, testing was performed in the early follicular phase (days 1-7 of menstrual cycle). Baseline height and weight were measured after an overnight fast. […]

CC#C[C@]1(O)CC[C@H]2[C@@H]3CCC4=CC(=O)CCC4=C3[C@@H](c3ccc(N(C)C)cc3)C[C@@]21C [Mifepristone, 11beta-[p-(dimethylamino)phenyl]-17alpha-(1-propynl)estra-4,9-dien-17beta-ol-3-one]
Urinary Free Cortisol (24-hour UFC): 74.1 ± 75.3 μg/24 hr
Urinary Free Cortisol (24-hour UFC) (listed as mifepristone): 74.1±75.3 μg/24 hr
Post-treatment mean UFC in the 8 subjects above the normal limit (subgroup of 8 subjects): 120.4±83.9 μg/24 hr
